Results on two compounds are retold here after US20080194482A1, “Selective Apac2 Receptor Peptide Agonists” (priority 2005, published 2008).

The term IC50 denotes the concentration that inhibits the measured activity by half. A word on the EC50: it is the concentration needed to bring the measured effect to its halfway point.

The target of one series is T1, human PAC1 (Homo sapiens, UniProt P41586).
T1 construct: expressed in transfected cells
T1 sequence (P41586 21-468): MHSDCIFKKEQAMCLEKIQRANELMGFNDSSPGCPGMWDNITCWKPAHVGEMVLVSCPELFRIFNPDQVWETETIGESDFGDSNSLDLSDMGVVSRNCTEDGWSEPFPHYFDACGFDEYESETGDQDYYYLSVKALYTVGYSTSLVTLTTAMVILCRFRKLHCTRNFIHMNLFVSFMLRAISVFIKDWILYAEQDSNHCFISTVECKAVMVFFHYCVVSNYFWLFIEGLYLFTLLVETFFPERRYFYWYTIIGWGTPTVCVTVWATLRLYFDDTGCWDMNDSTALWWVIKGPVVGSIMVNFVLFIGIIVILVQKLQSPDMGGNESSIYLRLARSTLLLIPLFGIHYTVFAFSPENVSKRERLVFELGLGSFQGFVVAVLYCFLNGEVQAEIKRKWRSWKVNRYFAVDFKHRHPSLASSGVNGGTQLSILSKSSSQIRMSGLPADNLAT
Put plainly: Filter binding assay, 125I-labeled PACAP-27 tracer, PAC1 membranes. The conditions noted are these: read-out: Human PAC1 Receptor Binding (IC50; nM).

The target of a further series is T2, rat VPAC1 receptor (Rattus norvegicus, UniProt P30083).
T2 construct: expressed in transfected cells; host or cells: CHO-PO (transient, Lipofectamine)
T2 sequence (P30083 31-459): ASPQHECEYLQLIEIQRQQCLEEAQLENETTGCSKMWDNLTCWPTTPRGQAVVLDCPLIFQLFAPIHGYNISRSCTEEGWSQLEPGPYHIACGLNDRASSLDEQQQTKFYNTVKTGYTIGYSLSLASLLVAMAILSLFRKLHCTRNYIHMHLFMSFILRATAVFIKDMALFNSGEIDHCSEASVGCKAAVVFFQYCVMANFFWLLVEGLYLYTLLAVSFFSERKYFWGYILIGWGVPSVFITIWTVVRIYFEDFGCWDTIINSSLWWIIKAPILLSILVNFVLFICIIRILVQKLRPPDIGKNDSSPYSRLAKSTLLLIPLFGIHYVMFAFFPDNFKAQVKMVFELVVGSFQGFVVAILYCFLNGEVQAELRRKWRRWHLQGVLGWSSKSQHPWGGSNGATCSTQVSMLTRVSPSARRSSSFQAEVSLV
Put plainly: DiscoveRx cAMP assay, in vitro potency at rat VPAC1 receptor. The class given is cell-based. The following applies: CHO-PO cells transiently transfected with rat VPAC1; cAMP generation; mean of two independent runs. The method, then:
DiscoveRx: CHO-PO cells are transiently transfected with rat VPAC1 or VPAC2 receptor DNA using commercially available transfection reagents (Lipofectamine from Invitrogen). The cells are seeded at a density of 10,000/well in a 96-well plate and are allowed to grow for 3 days in […] culture medium. At day 3, the assay is performed.
On the day of the experiment, the medium is removed. Also, the cells are washed twice. The cells are incubated in assay buffer plus IBMX for 15 minutes at room temperature. Afterwards, the stimuli are added and are dissolved in assay buffer. The stimuli are present for 30 minutes. Then, the assay buffer is gently removed. The cell lysis reagent of the DiscoveRx cAMP kit is added. Thereafter, the standard protocol for developing the cAMP signal as described by the manufacturer is used (DiscoveRx Inc., USA). EC50 values for cAMP generation are calculated from the raw signal or are based on absolute cAMP levels as determined by a standard curve performed on each plate.
Results for each agonist are the mean of two independent runs. Rat VPAC1 and VPAC2 results are only generated using the DiscoveRx assay.

The target of series [1] is T3, human VPAC2 (Homo sapiens, UniProt P41587).
T3 construct: expressed in transfected cells
T3 sequence (P41587 24-438): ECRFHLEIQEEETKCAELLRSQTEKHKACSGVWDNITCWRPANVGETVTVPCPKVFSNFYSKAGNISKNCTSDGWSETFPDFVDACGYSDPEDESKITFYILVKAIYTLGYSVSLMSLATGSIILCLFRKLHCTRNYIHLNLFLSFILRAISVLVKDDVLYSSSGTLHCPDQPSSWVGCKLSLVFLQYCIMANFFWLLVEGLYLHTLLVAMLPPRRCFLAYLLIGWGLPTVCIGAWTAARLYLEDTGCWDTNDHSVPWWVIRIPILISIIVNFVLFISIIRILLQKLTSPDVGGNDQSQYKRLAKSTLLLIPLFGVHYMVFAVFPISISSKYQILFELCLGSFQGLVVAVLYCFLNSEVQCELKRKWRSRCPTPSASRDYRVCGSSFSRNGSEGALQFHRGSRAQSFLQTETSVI
Nature of the series: Alpha screen cAMP assay, in vitro potency at human VPAC2 receptor. In kind it is cell-based. The following applies: cAMP generation; single result from two analyses in a single run, some values average of more than one experiment. A general note: cAMP levels reflect the balance of adenylyl cyclase and phosphodiesterase activity.
Protocol: Alpha screen: Cells are washed in the culture flask once with PBS. Then, the cells are rinsed with enzyme free dissociation buffer. The dissociated cells are removed. The cells are then spun down and washed in stimulation buffer. For each data point, 50,000 cells suspended in stimulation buffer are used. To this buffer, Alpha screen acceptor beads are added along with the stimuli. This mixture is incubated for 60 minutes. Lysis buffer and Alpha screen donor beads are added and are incubated for 60 to 120 minutes. The Alpha screen signal (indicative of intracellular cAMP levels) is read in a suitable instrument (e.g. AlphaQuest from Perkin-Elmer). Steps including Alpha screen donor and acceptor beads are performed in reduced light. The EC50 for cAMP generation is calculated from the raw signal or is based on absolute cAMP levels as determined by a standard curve performed on each plate.
Results for each agonist are, at minimum, from two analyses performed in a single run. For some agonists, the results are the mean of more than one run. The tested peptide concentrations are: 10000, 1000, 100, 10, 3, 1, 0.1, 0.01, 0.003, 0.001, 0.0001 and 0.00001 nM.

The target in a further series is T4, rat VPAC2 receptor (Rattus norvegicus, UniProt P35000).
T4 construct: expressed in transfected cells; host or cells: CHO-PO (transient, Lipofectamine)
T4 sequence (P35000 23-437): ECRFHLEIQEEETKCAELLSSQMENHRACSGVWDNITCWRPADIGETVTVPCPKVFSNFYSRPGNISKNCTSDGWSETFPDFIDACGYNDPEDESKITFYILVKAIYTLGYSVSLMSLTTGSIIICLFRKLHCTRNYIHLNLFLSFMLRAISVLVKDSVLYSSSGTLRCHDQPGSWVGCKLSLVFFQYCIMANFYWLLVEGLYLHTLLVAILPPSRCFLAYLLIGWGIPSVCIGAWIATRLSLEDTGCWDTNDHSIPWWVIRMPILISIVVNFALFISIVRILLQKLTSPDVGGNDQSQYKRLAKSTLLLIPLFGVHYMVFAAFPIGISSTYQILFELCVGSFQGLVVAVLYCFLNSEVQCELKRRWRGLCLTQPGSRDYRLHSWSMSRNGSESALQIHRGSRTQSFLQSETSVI
Nature of the series: DiscoveRx cAMP assay, in vitro potency at rat VPAC2 receptor. The following applies: CHO-PO cells transiently transfected with rat VPAC2; cAMP generation; mean of two independent runs. The class given is cell-based.

For series [2], the target named is T3, human VPAC2. Nature of the series: Filter binding assay, 125I-labeled VIP tracer, VPAC2 membranes. The conditions noted are these: read-out: Human VPAC2 Receptor Binding (IC50; nM).
A further series has as its target T5, human VPAC1 (Homo sapiens, UniProt P32241).
T5 construct: expressed in transfected cells
T5 sequence (P32241 31-457): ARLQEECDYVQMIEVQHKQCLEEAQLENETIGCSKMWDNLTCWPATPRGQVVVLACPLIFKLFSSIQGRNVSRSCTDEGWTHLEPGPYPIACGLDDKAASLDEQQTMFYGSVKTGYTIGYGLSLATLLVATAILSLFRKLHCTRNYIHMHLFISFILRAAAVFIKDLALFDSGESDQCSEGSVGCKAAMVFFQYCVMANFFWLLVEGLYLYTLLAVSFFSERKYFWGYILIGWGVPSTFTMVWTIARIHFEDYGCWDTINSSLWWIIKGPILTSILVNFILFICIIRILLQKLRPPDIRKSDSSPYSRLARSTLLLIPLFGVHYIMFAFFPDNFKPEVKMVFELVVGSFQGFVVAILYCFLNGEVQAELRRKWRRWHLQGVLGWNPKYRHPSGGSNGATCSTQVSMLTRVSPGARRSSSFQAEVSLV
Put plainly: Filter binding assay, 125I-labeled VIP tracer, VPAC1 membranes. The conditions noted are these: read-out: Human VPAC1 Receptor Binding (IC50; nM).

The nature of series [3]: Rat serum stability (activity remaining, CHO-VPAC2 DiscoveRx read-out). In kind it is in vitro ADME. In short, it runs like this: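 Peptides preincubated overnight in rat serum at 37 °C without aprotinin versus 4 °C with aprotinin, then tested as 11-point 5× dilutions in duplicate on CHO-VPAC2 cells, 30 min at RT. cAMP measured by DiscoveRx kit against standards; EC50 derived for each aliquot.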

Square brackets hold non-standard residues; d marks the D form. Peptide text beside a SMILES is read from it. * marks the point of attachment. Orn = NCCC[C@H](N)C(=O)O; Hexanoyl = CCCCCC(=O)*; Aib = CC(C)(N)C(=O)O Where only a bound is given, the exact number is not on record here.

Protocol for human PAC1: For this assay, the solutions and equipment include:
Presoak solution: 0.5% Polyethyleneamine in Aqua dest
Buffer for flushing filter plates: 25 mM HEPES pH 7.4
Blocking buffer: 25 mM HEPES pH 7.4; 0.2% protease free BSA
Assay buffer: 25 mM HEPES pH 7.4; 0.5% protease free BSA
Dilution and assay plate: PS-Microplate, U form
Filtration Plate: Multiscreen FB Opaque Plate; 1.0 μM Type B Glasfiber filter
In order to prepare the filter plates, the presoak solution is aspirated by vacuum filtration. The plates are flushed twice with 200 μL flush buffer. 200 μL blocking buffer is added to the filter plate. The filter plate is then incubated with 200 μL presoak solution for 1 hour at room temperature.
The assay plate is filled with 25 μL assay buffer, 25 μL membranes (2.5 μg) suspended in assay buffer, 25 μL compound (agonist) in assay buffer, and 25 μL tracer (about 40000 cpm) in assay buffer. The filled plate is incubated for 1 hour with shaking.
The transfer from assay plate to filter plate is conducted. The blocking buffer is aspirated by vacuum filtration and washed two times with flush buffer. 90 μL is transferred from the assay plate to the filter plate. The 90 μL transferred from assay plate is aspirated and washed three times with 200 μL flush buffer. The plastic support is removed. It is dried for 1 hour at 60° C. 30 μL Microscint is added. The count is performed.

For the compound `CCCCCC(=O)N[C@@H](Cc1c[nH]cn1)C(=O)N[C@@H](CO)C(=O)N[C@@H](CC(=O)O)C(=O)N[C@@H](C)C(=O)N[C@H](C(=O)N[C@@H](Cc1ccccc1)C(=O)N[C@H](C(=O)N[C@@H](CC(=O)O)C(=O)N[C@@H](CCC(N)=O)C(=O)N[C@@H](Cc1ccc(O)cc1)C(=O)N[C@H](C(=O)N[C@@H](CCCN)C(=O)N[C@@H](CC(C)C)C(=O)N[C@@H](CCCNC(=N)N)C(=O)NC(C)(C)C(=O)N[C@@H](CCC(N)=O)C(=O)N[C@@H](CC(C)C)C(=O)N[C@@H](C)C(=O)N[C@@H](C)C(=O)NC(C)(C)C(=O)N[C@@H](CCCN)C(=O)N[C@@H](Cc1ccc(O)cc1)C(=O)N[C@@H](CC(C)C)C(=O)N[C@@H](CCC(N)=O)C(=O)N[C@@H](CO)C(=O)N[C@H](C(=O)N[C@@H](CCCN)C(=O)N[C@@H](CCCN)C(=O)NCC(=O)NCC(=O)N1CCC[C@H]1C(=O)N[C@@H](CO)C(=O)N[C@@H](CO)C(=O)NCC(=O)N[C@@H](C)C(=O)N1CCC[C@H]1C(=O)N1CCC[C@H]1C(=O)N1CCC[C@H]1C(=O)N[C@@H](CO)C(=O)O)[C@@H](C)CC)[C@@H](C)O)[C@@H](C)O)C(C)C` [Agonist P395] (Hexanoyl-HSDAVFTDQYT[Orn]LR[Aib]QLAA[Aib][Orn]YLQSI[Orn][Orn]GGPSSGAPPPS-OH; C-terminus assumed), the figures for the IC50 at human PAC1 and at human VPAC2 [2] were above 25000 nM and 0.24 nM, respectively. For the same compound, the half-maximal effective concentration (EC50) at rat VPAC1 receptor was found to be 0.35 nM; on human VPAC2 [1] it was 0.15 nM; on rat VPAC2 receptor, 0.03 nM.
Regarding `CCCCCC(=O)N[C@@H](Cc1c[nH]cn1)C(=O)N[C@@H](CO)C(=O)N[C@@H](CC(=O)O)C(=O)N[C@@H](C)C(=O)N[C@H](C(=O)N[C@@H](Cc1ccccc1)C(=O)N[C@H](C(=O)N[C@@H](CC(=O)O)C(=O)N[C@@H](CC(N)=O)C(=O)N[C@@H](Cc1ccc(O)cc1)C(=O)N[C@H](C(=O)N[C@@H](CCCN)C(=O)N[C@@H](CC(C)C)C(=O)N[C@@H](CCCNC(=N)N)C(=O)NC(C)(C)C(=O)N[C@@H](CCC(N)=O)C(=O)N[C@H](C(=O)N[C@@H](C)C(=O)N[C@@H](C)C(=O)NC(C)(C)C(=O)N[C@@H](CCCCN)C(=O)N[C@@H](Cc1ccc(O)cc1)C(=O)N[C@@H](CC(C)C)C(=O)N[C@@H](CCC(N)=O)C(=O)N[C@@H](CS)C(=O)N[C@H](C(=O)N[C@@H](CCCN)C(=O)N[C@@H](CC(N)=O)C(=O)N[C@@H](CCCN)C(=O)NCC(=O)NCC(=O)N1CCC[C@H]1C(=O)N[C@@H](CO)C(=O)N[C@@H](CO)C(=O)NCC(=O)N[C@@H](C)C(=O)N1CCC[C@H]1C(=O)N1CCC[C@H]1C(=O)N1CCC[C@H]1C(=O)N[C@@H](CO)C(=O)O)[C@@H](C)CC)C(C)C)[C@@H](C)O)[C@@H](C)O)C(C)C` [Agonist P372] (Hexanoyl-HSDAVFTDNYT[Orn]LR[Aib]QVAA[Aib]KYLQCI[Orn]N[Orn]GGPSSGAPPPS-OH; C-terminus assumed), the IC50 is above 25000 nM at human PAC1, above 3000 nM at human VPAC1 and 4.82 nM on human VPAC2 [2]. Besides, the results for the EC50 on rat VPAC1 receptor, on human VPAC2 [1] and on rat VPAC2 receptor were 1.67 nM, 0.65 nM and 0.18 nM, respectively. In series [3], the “Rat Serum Stability (estimated purity in % after overnight incub.)” value is recorded as 13.93%.
